The values below are quoted from earlier work in patent US20060046961A1, “Controlled and directed local delivery of anti-inflammatory compositions” (priority 2004, published 2006).

The data set concerns PGE2 production. Particulars: cell culture.

For `COc1ccc2cc(CC(=O)O)ccc2c1` [6-methoxy-2-napthylacetic acid], the PGE2 production entry is given as “suppress” and the local inflammation entry is given as “suppress”.
